The values below come from US5266594A, “Inhibitors of nitric oxide synthase and use thereof to prevent glutamate neurotoxicity” (priority 1992, dated 1993).

Series [1] deals with brain NOS (cerebellar NOS) (Rattus norvegicus, UniProt P29476). Nature of the series: inhibition of NOS activity, conversion of [^3 H]arginine to [^3 H]citrulline, cerebellar homogenates/supernatants in vitro. From the text:
(§1) Inhibitors of NOS are compounds which compete for the substrate binding site of NOS or other sites on the enzyme, and include both reversible and irreversible inhibitors. The present invention contemplates the use of any physiologically acceptable inhibitor which inhibits NOS activity. The effectiveness of a compound, and its relative potency as an NOS inhibitor, can be tested and routinely determined by measuring inhibition of NOS activity by monitoring the conversion of arginine to citrulline by NOS in, for example, cerebellar homogenates. A reduction in citrulline formation indicates inhibitory activity of the compound. The percent reduction in citrulline formation, compared to the amount of citrulline formed in the absence of the compound being tested, indicates the potency of the compound as an NOS inhibitor.
Rat cerebella were homogenized in 10 vols. (w/v) […] Tris (pH 7.4), 2 mM EDTA. Homogenates were centrifuged at 10,000×g for 15 minutes at 4° C. Supernatant preparations were used in the enzyme assays. Cerebellar tissue was dialyzed (Spectra/Por, 10,000 MWCO, EDTA-treated cellulose dialysis tubing) against 20 mM Tris (pH 7.4), 2 mM EDTA (300 ml×2) for 24 hours at 4° C.
Cerebellar homogenates were incubated with arginine derivatives for one hour at 4° C., and dialyzed overnight. Aliquots (25 μg protein) were assayed for NOS activity before and after dialysis.
(§2) NOS activity was measured by monitoring the conversion of [^3 H]arginine to [^3 H]citrulline as described by Bredt and Snyder (Proc. Natl. Acad. Sci USA (1990) 87682-685). Briefly, enzyme assays contained 25 μl of soluble tissue, 50 μl of […] [^3 H]arginine and 1 mM NADPH, and 25 μl of 3 mM CaCl2. After a 15 minute incubation at room temperature, the assays were terminated with 3 ml of 20 mM Hepes (pH 5.5) with 2 mM EDTA, and were applied to 0.5 ml columns of Dowex AG50WX8 (Na^+ form). [^3 H]citrulline was quantified by liquid scintillation spectroscopy of the 3 ml flow-through.
(§3) Accordingly, the effects of 2, 4 and 24 hours of preincubations of cerebellar supernatants (FIG. 2A) and activated macrophage homogenates (FIG. 2B) with NO2 Arg were examined. The preincubation was conducted at 4° C. since NOS is unstable at higher temperature for long periods of time. Enzymatic incubation was conducted for only 5 minutes to minimize any reaction of the inhibitor with the enzyme in the course of the incubation procedure.
Cerebellar supernatants were made as described in Example 1.

In series [2] the test system is macrophage NOS (activated macrophage homogenates). As to the kind of experiment: inhibition of NOS activity in activated macrophage homogenates in vitro. Type of series: biochemical.
Excerpt: as §1, §2, §3
Macrophages were activated as described by Tayeh and Marletta (J. Biol. Chem. (1989) 264:19654-19658) with 3.5 ng/ml LPS from E. coli and 5 units/ml recombinant murine γ-interferon for 24 hours at 37° C. Cells were homogenized in 20 mM Hepes (pH 7.4).

The subject of series [3] is brain or macrophage enzyme (NOS). As to the kind of experiment: NOS inhibition and brain/macrophage selectivity of arginine, nitroarginine and guanidinoalkanoic acid analogs. Type of series: biochemical.
Series [4] has as its system brain-endothelial and macrophage NOS. The conditions noted are these: cited from earlier work.

Sequence of brain NOS (cerebellar NOS) (P29476 whole entry): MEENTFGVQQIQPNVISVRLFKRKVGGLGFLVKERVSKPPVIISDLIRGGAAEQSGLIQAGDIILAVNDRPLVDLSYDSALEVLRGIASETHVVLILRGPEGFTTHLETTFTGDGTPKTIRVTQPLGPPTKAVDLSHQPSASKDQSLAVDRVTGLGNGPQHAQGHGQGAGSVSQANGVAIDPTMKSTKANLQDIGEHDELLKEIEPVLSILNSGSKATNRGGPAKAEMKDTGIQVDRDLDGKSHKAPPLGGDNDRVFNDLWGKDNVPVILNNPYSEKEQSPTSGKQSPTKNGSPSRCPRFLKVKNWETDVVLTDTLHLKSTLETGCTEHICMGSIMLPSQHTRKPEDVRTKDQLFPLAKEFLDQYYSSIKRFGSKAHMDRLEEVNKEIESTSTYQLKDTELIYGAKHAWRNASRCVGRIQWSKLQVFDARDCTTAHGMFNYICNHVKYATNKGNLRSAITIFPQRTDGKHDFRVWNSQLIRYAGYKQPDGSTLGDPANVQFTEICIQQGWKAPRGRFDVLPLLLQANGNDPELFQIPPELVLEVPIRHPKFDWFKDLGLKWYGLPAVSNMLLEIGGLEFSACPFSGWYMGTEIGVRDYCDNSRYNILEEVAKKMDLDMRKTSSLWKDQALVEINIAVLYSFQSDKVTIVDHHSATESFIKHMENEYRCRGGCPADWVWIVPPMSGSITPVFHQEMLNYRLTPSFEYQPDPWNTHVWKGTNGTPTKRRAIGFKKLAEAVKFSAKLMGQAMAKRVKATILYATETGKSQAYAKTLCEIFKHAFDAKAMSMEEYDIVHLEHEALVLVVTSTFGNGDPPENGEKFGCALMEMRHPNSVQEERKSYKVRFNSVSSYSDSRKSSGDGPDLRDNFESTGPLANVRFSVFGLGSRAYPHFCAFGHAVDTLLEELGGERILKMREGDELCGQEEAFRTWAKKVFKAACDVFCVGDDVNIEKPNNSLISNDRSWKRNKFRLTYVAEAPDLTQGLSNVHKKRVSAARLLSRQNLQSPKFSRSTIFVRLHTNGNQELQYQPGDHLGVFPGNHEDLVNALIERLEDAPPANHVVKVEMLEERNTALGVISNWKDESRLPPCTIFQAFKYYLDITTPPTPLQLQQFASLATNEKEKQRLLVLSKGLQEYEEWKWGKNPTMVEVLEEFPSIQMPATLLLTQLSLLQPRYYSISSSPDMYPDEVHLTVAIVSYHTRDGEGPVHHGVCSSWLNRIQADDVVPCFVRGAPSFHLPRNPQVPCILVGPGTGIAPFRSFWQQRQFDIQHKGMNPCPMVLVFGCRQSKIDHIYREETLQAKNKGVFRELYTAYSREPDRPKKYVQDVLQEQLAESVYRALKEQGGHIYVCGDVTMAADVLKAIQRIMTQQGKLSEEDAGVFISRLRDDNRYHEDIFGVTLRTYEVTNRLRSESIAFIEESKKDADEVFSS

Turning to `N=C(NCCC[C@H](N)C(=O)O)N[N+](=O)[O-]` [NO2 Arg, L-N^ω -nitroarginine], the “effect of preincubation on potency of inhibition” value in series [1] (2 hour preincubation at 4° C., FIG. 2A) is reported as “increases the potency of inhibition”. For the same molecule, the “nature of inhibition of cerebellar NOS in vitro” value in series [1] (FIG. 1, before and after dialysis) is “irreversible inhibition”. Also, in series [1] (cerebellar supernatant preparations, FIG. 1), the “relative potency as inhibitor of NOS activity” value was “more potent inhibitor of NOS activity than MeArg”. In addition, the “augmentation of potency by preincubation” value in series [1] (preincubation for 24 hours at 4° C.) was “about 15 times”. Moreover, in series [2] (24 hours of incubation), the “potency in inhibiting the macrophage enzyme compared to the cerebellar enzyme” value is “about 7%”. The “enhancement of potency after preincubation” value in series [2] (preincubation with the enzyme, 24 hours, FIG. 2B) was “only a minimal enhancement of potency”. Further, the “potency as NOS inhibitor relative to cerebellar preparations” value in series [2] (supernatant preparations of activated macrophage cultures, FIG. 2B) is “less potent inhibitor of NOS than in cerebellar preparations”. Further, the “inhibition potency among nitroarginine analogs” value in series [3] was “most potent inhibitor”. In addition, the “inhibition of brain-endothelial versus macrophage enzyme” value in series [4] (Gross et al. (1990)) was “weaker inhibitor of the macrophage enzyme”. Also, the “greater potency in inhibiting brain-endothelial than macrophage NOS” value in series [4] (incubations at 37° C. for about 1/2 hour, 30 min) was 10-300 fold.
